From patent US20130303532A1, “IMIDAZOPYRAZINES FOR USE AS MPS-1 AND TKK INHIBITORS IN THE TREATMENT HYPERPROLIFERATIVE DISORDERS” (BAYER INTELLECTUAL PROPERTY GmbH, priority 2010, published 2013) come the findings set out here.

The first assay has as its target T1, human kinase Mps-1 (Homo sapiens, UniProt P33981).
T1 construct: N-terminally GST-tagged human full length recombinant Mps-1 kinase; GST (N); purchased Invitrogen, Karslruhe, Germany PV4071
T1 sequence (P33981 1-857): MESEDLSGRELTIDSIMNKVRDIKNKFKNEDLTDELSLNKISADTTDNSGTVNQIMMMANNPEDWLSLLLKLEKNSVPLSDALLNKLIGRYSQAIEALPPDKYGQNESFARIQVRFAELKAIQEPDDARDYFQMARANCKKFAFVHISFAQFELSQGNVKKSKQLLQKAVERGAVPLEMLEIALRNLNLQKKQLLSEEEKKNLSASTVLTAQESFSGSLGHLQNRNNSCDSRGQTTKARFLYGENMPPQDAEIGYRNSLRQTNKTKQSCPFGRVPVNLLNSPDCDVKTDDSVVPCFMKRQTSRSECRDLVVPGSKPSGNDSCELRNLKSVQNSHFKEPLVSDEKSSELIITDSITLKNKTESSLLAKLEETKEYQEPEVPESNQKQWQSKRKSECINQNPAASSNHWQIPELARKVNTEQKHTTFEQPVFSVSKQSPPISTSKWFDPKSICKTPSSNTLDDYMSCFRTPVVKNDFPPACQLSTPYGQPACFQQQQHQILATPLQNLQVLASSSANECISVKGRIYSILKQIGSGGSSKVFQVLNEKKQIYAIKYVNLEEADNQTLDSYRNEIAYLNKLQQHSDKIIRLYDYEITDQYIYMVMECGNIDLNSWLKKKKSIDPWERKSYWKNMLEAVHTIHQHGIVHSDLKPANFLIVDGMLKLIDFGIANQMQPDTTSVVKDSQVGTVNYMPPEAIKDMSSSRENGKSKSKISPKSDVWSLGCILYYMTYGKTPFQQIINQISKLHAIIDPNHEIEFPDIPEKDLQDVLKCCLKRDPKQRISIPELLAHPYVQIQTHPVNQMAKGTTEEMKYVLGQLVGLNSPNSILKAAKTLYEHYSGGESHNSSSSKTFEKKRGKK
Briefly: Mps-1 kinase assay (TR-FRET). The format is biochemical. The settings on record: Mps1 IC50 [nM], N-terminally GST-tagged human full length recombinant Mps-1; 10 μM ATP; 1 μM biotinylated peptide substrate; 60 min at 22° C.
By IC50 is commonly meant the concentration needed to halve the response being measured. Take `COCCCNc1nccn2c(-c3ccc(C(=O)NC4CC4)c(Cl)c3)cnc12` [Example 7-58, 2-chloro-N-cyclopropyl-4-{8-[(3-methoxypropyl)amino]imi-dazo[1,2-a]pyrazin-3-yl}benzamide]: the IC50 amounted to 485 nM. On the same count and under the same terms, under `COCCNc1nccn2c(-c3ccc(C(=O)NC4CC4)cc3)cnc12` [Example 7-2, N-cyclopropyl-4-{8-[(2-methoxyethyl)amino]imi-dazo[1,2-a]pyrazin-3-yl}benzamide] stands 272 nM; under `Cc1cc(-c2cnc3c(NCCCO)nccn23)ccc1C(=O)NC1CC1` [Example 7-104, N-cyclopropyl-4-{8-[(3-hydroxypropyl)amino]imi-dazo[1,2-a]pyrazin-3-yl}-2-methylbenzamide], 124 nM; under `O=C(NC1CC1)c1ccc(-c2cnc3c(NCCCO)nccn23)cc1Cl` [Example 7-43, 2-chloro-N-cyclopropyl-4-{8-[(3-hydroxypropyl)amino]imi-dazo[1,2-a]pyrazin-3-yl}benzamide], 430 nM. The same measure, in the same setting: under `O=C(NC1CC1)c1ccc(-c2cnc3c(NCC4CCCO4)nccn23)cc1O` (centres unmarked) [Example 7-72, N-cyclopropyl-2-hydroxy-4-{8-[(tetrahydrofuran-2-ylmethyl)amino]imi-dazo[1,2-a]pyrazin-3-yl}benzamide] stands 36.3 nM; under `CCOC(C)CNc1nccn2c(-c3ccc(C(=O)NC4CC4)c(Cl)c3)cnc12` (centres unmarked) [Example 7-63, 2-chloro-N-cyclopropyl-4-{8-[(2-ethoxypropyl)amino]imi-dazo[1,2-a]pyrazin-3-yl}benzamide], 409 nM.

`Cc1cc(-c2cnc3c(NCc4ccncc4)nccn23)ccc1C(=O)NC1CC1` [Example 7-109, N-cyclopropyl-2-methyl-4-{8-[(pyridin-4-ylmethyl)amino]imi-dazo[1,2-a]pyrazin-3-yl}benzamide]: the IC50 was 166 nM.

The assay is the same for the next values; noted with them: N-terminally GST-tagged human full length recombinant Mps-1; 10 μM ATP; 1 μM biotinylated peptide substrate; 60 min at 22° C.; read-out: Mps1 IC50.
As for `NS(=O)(=O)c1ccc(CCNc2nccn3c(-c4ccc(C(=O)NC5CC5)cc4)cnc23)cc1` [Example 7-27, N-cyclopropyl-4-(8-{[2-(4-sulfamoylphenyl)ethyl]ami-no}imidazo[1,2-a]pyrazin-3-yl)benzamide], the IC50 is 97.6 nM.

Take `CN(C)CCNc1nccn2c(-c3ccc(C(=O)NC4CC4)cc3)cnc12` [Example 7-7, N-cyclopropyl-4-(8-{[2-(dimethylamino)ethyl]ami-no}imidazo[1,2-a]pyrazin-3-yl)benzamide]: the IC50 came to 4050 nM. Still for that read-out and setting: under `CS(=O)(=O)CCCNc1nccn2c(-c3ccc(C(=O)NC4CC4)c(Cl)c3)cnc12` [Example 7-66, 2-chloro-N-cyclopropyl-4-(8-{[3-(methylsulfonyl)propyl]ami-no}imidazo[1,2-a]pyrazin-3-yl)benzamide] stands 519 nM; under “2-chloro-N-cyclopropyl-4- {8-[(2- sulfamoylethyl)amino]imi- dazo[1,2-a]pyrazin-3- yl}benzamide [Example 7-67]”, 250 nM. Turning to `O=C(NC1CC1)c1ccc(-c2cnc3c(NCCCN4CCCC4=O)nccn23)cc1Cl` [Example 7-35, 2-chloro-N-cyclopropyl-4-(8-{[3-(2-oxopyrrolidin-1-yl)propyl]amino}imidazo[1,2-a]pyrazin-3-yl)benzamide], the IC50 turned out to be 1970 nM. Still for that read-out and setting: under `Cc1cc(-c2cnc3c(NCc4ccccc4)nccn23)ccc1C(=O)NC1CC1` [Example 7-101, 4-[8-(benzylamino)imidazo[1,2-a]pyrazin-3-yl]-N-cyclopropyl-2-methylbenzamide] stands 34.1 nM.

For `O=C(NC1CC1)c1ccc(-c2cnc3c(NCc4ccccc4)nccn23)cc1Cl` [Example 7-40, 4-[8-(benzylamino)imidazo[1,2-a]pyrazin-3-yl]-2-chloro-N-cyclopropylbenzamide], the IC50 is 64.6 nM.
